# Values of other authors as cited in PubChem BioAssay AID1259409 (Chemical Carcinogenesis Research Information System (CCRIS), 2018).
# Several values for one entry are separate records, joined by “and”; a condition that tells them apart may be missing. Equal entries are not always repeated.
# Test system: rodent chemically induced tumor inhibition, incidence and multiplicity
# Test: CCRIS tumor inhibitor studies
# Conditions: Dose [Inhibitor]: 0
smiles,measurement,setting,value
N#C[Se]Cc1ccc(C[Se]C#N)cc1,"tumour outcome (control, treated, inhibition, significance)","Carcinogen: 4(Methylnitrosamino)-1-(3-pyridyl)-1-butanone (NNK) (62339-61-1), 10 ppm as Se in diet, wks 6 to 32, study duration 26 wk, Route [Inhibitor]: Oral, Species: Mouse, Strain/Sex: A/J / Female, Target Tissue: Type of Lesion: Lung: Tumor, Dose [Carcinogen]: 3 umol once a wk for 8 wk beginning at wk 6 (total of 24 umol/mouse), study duration 26 wk","90%, 20% (78% reduction), p<0.001 and 96%, 68% (30% reduction), p<0.01"
same,"tumour outcome (control, treated, inhibition, significance)","Carcinogen: 4-(METHYLNITROSAMINO)-1-(3-PYRIDYL)-1-BUTANONE, 64091-91-4, 0.0005% IN DIET FOR 17 WK BEGINNING 1 WK PRIOR TO CARCINOGEN DOSE (STUDY DURATION: 17 WK), Route [Inhibitor]: ORAL, Species: MOUSE, Strain/Sex: STRAIN-A/FEMALE, Target Tissue: Type of Lesion: LUNG: ADENOMA, Dose [Carcinogen]: 10 UMOL IN 0.1 ML SALINE ONCE, Promoter: NONE USED","100%, 100%, 0%, not significant"
same,"tumour outcome (control, treated, inhibition, significance)","Carcinogen: 4-(METHYLNITROSAMINO)-1-(3-PYRIDYL)-1-BUTANONE, 64091-91-4, 5 PPM IN DIET BEGINNING 1 WK PRIOR TO CARCINOGEN TREATMENT AND CONTINUING FOR 16 WK POST CARCINOGEN TREATMENT (STUDY, Route [Inhibitor]: ORAL, Species: MOUSE, Strain/Sex: STRAIN-A/FEMALE, Target Tissue: Type of Lesion: LUNG: ADENOMA, Dose [Carcinogen]: 10 UMOL IN 0.1 ML SALINE, Promoter: NONE USED","100%, 100%, 0%, not significant"
same,"tumour outcome (control, treated, inhibition, significance)","Carcinogen: 4-(METHYLNITROSAMINO)-1-(3-PYRIDYL)-1-BUTANONE, 64091-91-4, 7.5 PPM IN DIET FOR 3 WK BEGINNING 1 WK PRIOR TO CARCINOGEN DOSE (STUDY DURATION: 18 WK), Route [Inhibitor]: ORAL, Species: MOUSE, Strain/Sex: STRAIN-A/FEMALE, Target Tissue: Type of Lesion: LUNG: TUMOR, Dose [Carcinogen]: 10 UMOL IN 0.1 ML SALINE ONCE, Promoter: NONE USED","100%, 80%, 20%, not significant"
same,"tumour outcome (control, treated, inhibition, significance)","Carcinogen: 4-(METHYLNITROSAMINO)-1-(3-PYRIDYL)-1-BUTANONE, 64091-91-4, 7.5 PPM IN DIET FOR 15 WK BEGINNING 1 WK POST CARCINOGEN DOSE (STUDY DURATION: 18 WK), Route [Inhibitor]: ORAL, Species: MOUSE, Strain/Sex: STRAIN-A/FEMALE, Target Tissue: Type of Lesion: LUNG: TUMOR, Dose [Carcinogen]: 10 UMOL IN 0.1 ML SALINE ONCE, Promoter: NONE USED","100%, 96%, 4%, not significant"
same,"tumour outcome (control, treated, inhibition, significance)","Carcinogen: 4-(METHYLNITROSAMINO)-1-(3-PYRIDYL)-1-BUTANONE, 64091-91-4, 10 PPM IN DIET BEGINNING 1 WK PRIOR TO CARCINOGEN TREATMENT AND CONTINUING FOR 16 WK POST CARCINOGEN TREATMENT (STUDY, Route [Inhibitor]: ORAL, Species: MOUSE, Strain/Sex: STRAIN-A/FEMALE, Target Tissue: Type of Lesion: LUNG: ADENOMA, Dose [Carcinogen]: 10 UMOL IN 0.1 ML SALINE, Promoter: NONE USED","100%, 90%, 10%, not significant"
same,"tumour outcome (control, treated, inhibition, significance)","Carcinogen: 4-(METHYLNITROSAMINO)-1-(3-PYRIDYL)-1-BUTANONE, 64091-91-4, 15 PPM IN DIET BEGINNING 1 WK PRIOR TO CARCINOGEN TREATMENT AND CONTINUING FOR 16 WK POST CARCINOGEN TREATMENT (STUDY, Route [Inhibitor]: ORAL, Species: MOUSE, Strain/Sex: STRAIN-A/FEMALE, Target Tissue: Type of Lesion: LUNG: ADENOMA, Dose [Carcinogen]: 10 UMOL IN 0.1 ML SALINE, Promoter: NONE USED","100%, 85%, 15%, not significant"
same,"tumour outcome (control, treated, inhibition, significance)","Carcinogen: 4-(METHYLNITROSAMINO)-1-(3-PYRIDYL)-1-BUTANONE, 64091-91-4, 15 PPM IN DIET FOR 3 WK BEGINNING 2 WK PRIOR TO CARCINOGEN DOSE (STUDY DURATION: 18 WK), Route [Inhibitor]: ORAL, Species: MOUSE, Strain/Sex: STRAIN-A/FEMALE, Target Tissue: Type of Lesion: LUNG: TUMOR, Dose [Carcinogen]: 10 UMOL IN 0.1 ML SALINE ONCE, Promoter: NONE USED","100%, 80%, 20%, not significant"
same,"tumour outcome (control, treated, inhibition, significance)","Carcinogen: 4-(METHYLNITROSAMINO)-1-(3-PYRIDYL)-1-BUTANONE, 64091-91-4, 15 PPM IN DIET FOR 15 WK BEGINNING 1 WK POST CARCINOGEN DOSE (STUDY DURATION: 18 WK), Route [Inhibitor]: ORAL, Species: MOUSE, Strain/Sex: STRAIN-A/FEMALE, Target Tissue: Type of Lesion: LUNG: TUMOR, Dose [Carcinogen]: 10 UMOL IN 0.1 ML SALINE ONCE, Promoter: NONE USED","100%, 96%, 4%, not significant"
same,"tumour outcome (control, treated, inhibition, significance)","Carcinogen: 7,12-DIMETHYLBENZ[A]ANTHRACENE, 57-97-6, 2.5 PPM (AS SELENIUM) IN DIET BEGINNING 2 WK PRIOR TO CARCINOGEN DOSE AND CONTINUING FOR DURATION OF STUDY (STUDY DUR, Route [Inhibitor]: ORAL, Species: RAT, Strain/Sex: SPRAGUE-DAWLEY/FEMALE, Target Tissue: Type of Lesion: MAMMARY GLAND: ADENOCARCINOMA, Dose [Carcinogen]: 10 MG ONCE AT 55 D OF AGE, Promoter: NONE USED","88%, 72%, 18%, not significant"
same,"tumour outcome (control, treated, inhibition, significance)","Carcinogen: 7,12-DIMETHYLBENZ[A]ANTHRACENE, 57-97-6, 5 PPM (AS SELENIUM) IN DIET BEGINNING 1 WK POST CARCINOGEN DOSE AND CONTINUING FOR 25 WK (STUDY DURATION: 25 WK), Route [Inhibitor]: ORAL, Species: RAT, Strain/Sex: SPRAGUE-DAWLEY/FEMALE, Target Tissue: Type of Lesion: MAMMARY GLAND: ADENOCARCINOMA, Dose [Carcinogen]: 10 MG ONCE AT 55 D OF AGE, Promoter: NONE USED","22/25 (88%), 17/25 (68%), 23%, not significant"
